From patent publication US9096871B2, “Variant CBH I polypeptides with reduced product inhibition” (BP Corporation North America Inc., priority 2010, dated 2015) come the findings set out here.

Converted amounts (≈) assume the structure as drawn. Some results are limits rather than exact numbers.

What all share (format): biochemical
Experiment [1] concerns BD29555 CBH I variant R273K/R422K (R268K/R411K by T. reesei numbering; parent SEQ ID NO:1; full length SEQ ID NO:301, mature SEQ ID NO:302). Description: 4-MUL assay, cellobiose inhibition, BD29555 R273K/R422K variant. On the procedure: (§1) 4-Methylumbelliferyl Lactoside (4-MUL) Assay: This assay measures the activity of CBH I on the fluorogenic substrate 4-MUL (also known as MUL). Assays were run in a costar 96-well black bottom plate, where reactions were initiated by the addition of 4-MUL to enzyme in buffer (2 mM 4-MUL in 200 mM MES pH 6). Enzymatic rates were monitored by fluorescent readouts over five minutes on a SPECTRAMAX™ plate reader (ex/em 365/450 nm). Data in the linear range was used to calculate initial rates (Vo).
(§2) Cellobiose Tolerance Assays (or Cellobiose Inhibition Assays): Tolerance to cellobiose (or inhibition caused by cellobiose) was tested in two ways in the CBH I assays. A direct-dose tolerance method can be applied to all of the CBH I assays (i.e., 4-MUL, PASC, and/or bagasse assays), and entails the exogenous addition of a known amount of cellobiose into assay mixtures. A different indirect method entails the addition of an excess amount of β-glucosidase (BG) to PASC and bagasse assays (typically, 1 mg β-glucosidase/g solids loaded). BG will enzymatically hydrolyze the cellobiose generated during these assays; therefore, CBH I activity in the presence of BG can be taken as a measure of activity in the absence of cellobiose. Furthermore, when activity in the presence and absence of BG are similar, this indicates tolerance to cellobiose.
(§3) The wild type CBH I polypeptide BD29555 was mutagenized to identify variants with improved product tolerance. […] This product-release-site library was designed based on residues directly interacting with the cellobiose product in an attempt to identify variants with weakened interactions with cellobiose from which the product would be released more readily than the wild type enzyme. […]
(§4) Cellobiose dose response curves of the wild-type and R273K/R422K variant of BD29555 were obtained during the 4-MUL assay. Enzyme rates (Vo) were measured in the presence of different concentrations of cellobiose (200 mM MES pH 6, 25° C.). Rates were measured in quadruplicate.

Experiment [2] relates to BD29555 CBH I variant R273K/R422K (parent SEQ ID NO:1; full length SEQ ID NO:301, mature SEQ ID NO:302). The experiment can be described thus: PASC assay, cellobiose inhibition, BD29555 R273K/R422K variant. To be noted: 10 g/L cellobiose, PASC substrate, FIG. 3. On the procedure:
(§5) Phosphoric Acid Swollen Cellulose (PASC) Assay: This assay measures the activity of CBH I using PASC as the substrate. During the assay, the concentration of PASC is monitored by a fluorescent signal derived from calcofluor binding to PASC (ex/em 365/440 nm). The assay is initiated by mixing enzyme (15 μl) and reaction buffer (85 μl of 0.2% PASC, 200 mM MES, pH 6), and then incubating at 35° C. while shaking at 225 RPM. After 2 hours, one reaction volume of calcofluor stop solution (100 μg/ml in 500 mM glycine pH 10) is added and fluorescence read-outs obtained (ex/em 365/440 nm).
as §2, with “Furthermore, when activity in the presence and absence of BG are similar, this indicates tolerance to cellobiose.” left out

In experiment [3] the test system is CBH I polypeptide BD29555, wild type, SEQ ID NO:1. The experiment can be described thus: 4-Methylumbelliferyl lactoside (4-MUL) assay, cellobiose inhibition, wild type BD29555. On the procedure:
as §1
(§6) Cellobiose Tolerance Assays (or Cellobiose Inhibition Assays): Tolerance to cellobiose (or inhibition caused by cellobiose) was tested in two ways in the CBH I assays. A direct-dose tolerance method can be applied to all of the CBH I assays (i.e., 4-MUL, PASC, and/or bagasse assays), and entails the exogenous addition of a known amount of cellobiose into assay mixtures. A different indirect method entails the addition of an excess amount of β-glucosidase (BG) to PASC and bagasse assays (typically, 1 mg β-glucosidase/g solids loaded). […]
as §4

Experiment [4] deals with BD29555 CBH I variant R273K/Y274Q/D281K/Y410H/P411G/R422K (parent SEQ ID NO:1). The experiment can be described thus: 4-MUL assay, cellobiose inhibition, BD29555 R273K/Y274Q/D281K/Y410H/P411G/R422K variant. To be noted: 250 mg/L cellobiose, (activity with cellobiose)/(activity without cellobiose)*100. On the procedure: as §1
as §2, with “to cellobiose. […]” for “to cellobiose.”

The target of experiment [5] is T1, T. reesei CBH I, wild type, SEQ ID NO:2 (Trichoderma reesei, UniProt P62694, INS458P/R459P). The experiment can be described thus: 4-MUL assay, cellobiose inhibition, wild type T. reesei CBH I. To be noted: read-out: % Activity in 4-MUL Assay (+/−Cellobiose). On the procedure: as §1, §6
(§7) Cellobiose product tolerant substitutions were introduced into T. reesei CBH I (SEQ ID NO:2). A panel of variants with single and double alanine and lysine substitutions at R268 and R411 were expressed and analyzed. […]

The test system of experiment [6] is BD29555 CBH I variant R273Q (parent SEQ ID NO:1). The experiment can be described thus: Library screening, 4-MUL assay in presence and absence of cellobiose, BD29555 R273Q. The conditions noted are these: library screen, 250 g/L cellobiose (so in the source), gluconolactone present. On the procedure:
as §1
(§8) Cellobiose Tolerance Assays (or Cellobiose Inhibition Assays): Tolerance to cellobiose (or inhibition caused by cellobiose) was tested in two ways in the CBH I assays. A direct-dose tolerance method can be applied to all of the CBH I assays (i.e., 4-MUL, PASC, and/or bagasse assays), and entails the exogenous addition of a known amount of cellobiose into assay mixtures. […]
as §3

Experiment [7] concerns CBH I polypeptide BD29555, wild type, SEQ ID NO:1. The experiment can be described thus: Phosphoric acid swollen cellulose (PASC) assay, cellobiose inhibition, wild type BD29555. The conditions noted are these: PASC substrate, FIG. 3. On the procedure: as §5
as §2, with “Furthermore, when activity in the presence and absence of BG are similar, this indicates tolerance to cellobiose.” left out

The target of experiment [8] is T. reesei CBH I variant R268K/R411A (parent SEQ ID NO:2) (Trichoderma reesei, UniProt A0A024RXP8, R268K/R411A). Description: 4-MUL assay, cellobiose inhibition, T. reesei CBH I R268K/R411A. The conditions noted are these: read-out: % Activity in 4-MUL Assay (+/−Cellobiose), 250 mg/L cellobiose, (activity with cellobiose)/(activity without cellobiose)*100. On the procedure: as §1, §6, §7

For experiment [9], the target named is T1, T. reesei CBH I, wild type, SEQ ID NO:2. The experiment can be described thus: PASC assay, cellobiose inhibition, wild type T. reesei CBH I. On the procedure:
as §5
as §2, with “Furthermore, when activity in the presence and absence of BG are similar, this indicates tolerance to cellobiose.” left out

The subject of experiment [10] is BD29555 CBH I variant R273A (parent SEQ ID NO:1). The experiment can be described thus: Library screening, 4-MUL assay in presence and absence of cellobiose, BD29555 R273A. To be noted: library screen, 250 g/L cellobiose (so in the source), gluconolactone present. On the procedure:
as §1, §8, §3

The target in experiment [11] is T. reesei CBH I variant R268A/R411K (parent SEQ ID NO:2) (Trichoderma reesei, UniProt A0A024RXP8, R268A/R411K). The experiment can be described thus: 4-MUL assay, cellobiose inhibition, T. reesei CBH I R268A/R411K. To be noted: read-out: % Activity in 4-MUL Assay (+/−Cellobiose), 250 mg/L cellobiose, (activity with cellobiose)/(activity without cellobiose)*100. On the procedure: as §1, §6, §7

Experiment [12] deals with T. reesei CBH I variant R268K/R411K (parent SEQ ID NO:2) (Trichoderma reesei, UniProt A0A024RXP8, R268K/R411K). The experiment can be described thus: 4-MUL assay, cellobiose inhibition, T. reesei CBH I R268K/R411K. To be noted: read-out: % Activity in 4-MUL Assay (+/−Cellobiose), 250 mg/L cellobiose, (activity with cellobiose)/(activity without cellobiose)*100. On the procedure: as §1, §6, §7

Experiment [13] addresses T. reesei CBH I variant R268A/R411A (parent SEQ ID NO:2) (Trichoderma reesei, UniProt A0A024RXP8, R268A/R411A). Description: 4-MUL assay, cellobiose inhibition, T. reesei CBH I R268A/R411A. The conditions noted are these: read-out: % Activity in 4-MUL Assay (+/−Cellobiose), 250 mg/L cellobiose, (activity with cellobiose)/(activity without cellobiose)*100. On the procedure: as §1, §6, §7

T1 sequence (P62694 other isoform, or with tags, fused parts or gaps INS458P/R459P): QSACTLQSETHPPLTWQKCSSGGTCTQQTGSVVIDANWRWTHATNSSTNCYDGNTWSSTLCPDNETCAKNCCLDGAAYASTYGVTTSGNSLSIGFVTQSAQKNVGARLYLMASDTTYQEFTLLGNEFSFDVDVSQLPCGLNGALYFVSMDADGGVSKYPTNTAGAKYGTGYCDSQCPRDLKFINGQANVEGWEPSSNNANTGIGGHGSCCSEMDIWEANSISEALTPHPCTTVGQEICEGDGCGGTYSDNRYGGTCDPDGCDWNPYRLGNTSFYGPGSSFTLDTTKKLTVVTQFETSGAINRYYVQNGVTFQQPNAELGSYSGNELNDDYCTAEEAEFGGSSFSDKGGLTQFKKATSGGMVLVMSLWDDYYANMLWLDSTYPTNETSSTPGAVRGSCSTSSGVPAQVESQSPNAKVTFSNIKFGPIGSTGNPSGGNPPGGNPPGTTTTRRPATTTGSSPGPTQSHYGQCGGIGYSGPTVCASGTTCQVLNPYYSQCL
T. reesei CBH I variant R268A/R411K (parent SEQ ID NO:2), sequence (A0A024RXP8 18-514 R268A/R411K): as the sequence (P62694 other isoform, or with tags, fused parts or gaps INS458P/R459P) above, with R251A, R394K counted along it
T. reesei CBH I variant R268K/R411K (parent SEQ ID NO:2), sequence (A0A024RXP8 18-514 R268K/R411K): as the sequence (P62694 other isoform, or with tags, fused parts or gaps INS458P/R459P) above, with R251K, R394K counted along it
T. reesei CBH I variant R268K/R411A (parent SEQ ID NO:2), sequence (A0A024RXP8 18-514 R268K/R411A): as the sequence (P62694 other isoform, or with tags, fused parts or gaps INS458P/R459P) above, with R251K, R394A counted along it
T. reesei CBH I variant R268A/R411A (parent SEQ ID NO:2), sequence (A0A024RXP8 18-514 R268A/R411A): as the sequence (P62694 other isoform, or with tags, fused parts or gaps INS458P/R459P) above, with R251A, R394A counted along it

By IC50 is commonly meant the point on the concentration scale where inhibition reaches its midpoint. Consider `OC[C@H]1O[C@@H](O[C@H]2[C@H](O)[C@@H](O)C(O)O[C@@H]2CO)[C@H](O)[C@@H](O)[C@@H]1O` (stereo partly drawn) [cellobiose], for which the “% Activity in 4-MUL Assay (+/−Cellobiose)” value in [1] (250 mg/L cellobiose, (activity with cellobiose)/(activity without cellobiose)*100, R273K/R422K) was 95%; in experiment [3] (250 mg/L cellobiose, (activity with cellobiose)/(activity without cellobiose)*100, wild type BD29555) it was 25%; in experiment [4] it was 78%. Further, in [1] (4-MUL substrate, 200 mM MES pH 6, 25° C., FIG. 1B), the “tolerance to cellobiose (dose response)” value was “tolerant to cellobiose up to 250 mg/L”. In addition, the product tolerance entry is reported as “enhanced product tolerance” in experiment [1] (library screen, 4-MUL assay, 250 g/L cellobiose (so in the source), gluconolactone present); “enhanced product tolerance” in [6]; “enhanced product tolerance” in [10]. Moreover, the inhibition by cellobiose result in experiment [2] is “little inhibition”. Also, the “half maximal inhibitory concentration (IC50 value)” value in [3] (4-MUL substrate, 200 mM MES pH 6, 25° C., rates in quadruplicate, FIG. 1A) worked out at 60 µg/mL. The activity at 250 µg/mL in [5] is 23%; in [8] it was > 90%; in [11], > 90%; in [12] it was > 90%; in experiment [13], > 90%. In addition, the concentration for half-maximal inhibition (IC50) was 2200 µg/mL (≈ 6.43 mM) in experiment [7] and 8.76 mM in experiment [9]. For the same molecule, the “cellobiose concentration at which inhibition starts” value in experiment [7] is “around 1 g/L”; in experiment [9] (PASC substrate, FIG. 3), “around 1 g/L”.
